Test results as given in patent publication US5272144A, “Aryloxy-, arylthio-, heteroaryloxy-, heteroarylthio-alkenylene derivatives of amines and pharmaceutical use” (Farmitalia Carlo Erba s.r.l., priority 1988, dated 1993).

Columns and labels:
[1] = tested on: reserpine-induced blepharospasm; experiment: prevention of reserpine-induced blepharospasm in mice (antidepressant activity); type: in vivo; settings: Mus musculus, po, 1 h, per os, 30 min before reserpine 2.4 mg/kg endoperitoneally, blepharospasm scored one hour after reserpine, read-out: BLEPH/ED50 (blepharospasm)
Description: (§1) The antidepressant activity was evaluated for example in mice on the basis of the prevention of reserpine-induced blepharospasm and hypothermia.

[2] = tested on: reserpine-induced hypothermia; experiment: prevention of reserpine-induced hypothermia in mice (antidepressant activity); type: in vivo; settings: Mus musculus, po, 4 h, per os, 30 min before reserpine 2.4 mg/kg endoperitoneally, rectal temperature four hours after reserpine, read-out: HYPOTH/ED50 (hypothermia)
Description: as §1

Row | SMILES | ED50 [1] | ED50 [2]
1 | CN(C)CCCN1c2ccccc2CCc2ccccc21 [IMIPRAMINE, reference compound] | 24.1 mg/kg | 10.2 mg/kg
2 | CNC/C=C(\Oc1ccccc1Cl)c1ccccc1 [H 2-Cl H H H CH3 Z, α-(2-chlorophenoxy)-α-phenyl-β-methylaminomethyl-ethylene] | 0.7 mg/kg | 0.2 mg/kg
3 | CNC/C=C(/Oc1ccccc1Cl)c1ccccc1 [H 2-Cl H H H CH3 E, α-(2-chlorophenoxy)-α-phenyl-β-methylaminomethyl-ethylene] | 1.1 mg/kg | 1.2 mg/kg
4 | CNC/C=C(\Oc1ccc(Cl)c(Cl)c1)c1ccccc1 [3-Cl 4-Cl H H H CH3 Z, α-(3,4-dichlorophenoxy)-α-phenyl-β-methylaminomethyl-ethylene] | 1.2 mg/kg | 1.3 mg/kg
5 | CNC/C=C(\Oc1ccccc1)c1ccc2c(c1)OCO2 [H H 3,4-OCH2 O H CH3 Z, α-phenoxy-α-(3,4-methylenedioxyphenyl)-β-methylaminomethyl-ethylene] | 2.2 mg/kg | 2.4 mg/kg
6 | CNC/C=C(/Oc1ccccc1)c1ccc2c(c1)OCO2 [H H 3,4-OCH2 O H CH3 E, α-phenoxy-α-(3,4-methylenedioxyphenyl)-β-methylaminomethyl-ethylene] | 1 mg/kg | 1.4 mg/kg
7 | CNC/C=C(\Oc1ccccc1)c1ccccc1 [H H H H H CH3 Z, (Z)α-phenoxy-α-phenyl-β-methylaminomethyl-ethylene] | 0.8 mg/kg | 0.8 mg/kg
8 | CN(C)C/C=C(\Oc1ccccc1)c1ccccc1 [H H H H CH3 CH3 Z, (Z)α-phenoxy-α-phenyl-β-dimethylaminomethyl-ethylene] | 0.5 mg/kg | 1.4 mg/kg
